Measurements taken from article PMC7031696 (Cell chemical biology, 2019).
Read-outs that look alike come from different tables or passages of the source.

What was measured:
[1] = system: Plasmodium falciparum 3D7-A10 parasites; experiment: Stage specificity assay (8-h exposure of synchronized stages, IC50^8h); format: cell-based; settings: for IC50: Plasmodium falciparum
[2] = system: 3D7-MR4 trophozoite parasite-infected RBCs; experiment: Metabolomic profiling (hydrophilic metabolite changes, UHPLC-MS); format: cell-based, Plasmodium falciparum
[3] = system: asynchronous 3D7-A10 parasite cultures; experiment: Standard 72-h exposure asexual blood stage susceptibility assay (IC50^72h); format: cell-based, Plasmodium falciparum; settings: Plasmodium falciparum, 3D7, 72 h, read-out: Overall (72hr assay) Mean IC50 (IC50^72h)

COc1cc(-c2nc(-c3ccccc3)c(-c3ccccc3)[nH]2)ccc1OCCN(C)C [MMV027496]
Ratio lowest IC50 8hr/IC50 72hr ([1]; 3D7-A10): 1.9 | IC50 ([1]; 3D7, read-out: Early rings Mean IC50 (IC50^8h), 8-h exposure 0–8 hr, 3D7-A10, survival at 60 h): 2760 nM | IC50 ([1]; 3D7, read-out: Early trophozoites Mean IC50 (IC50^8h), 8-h exposure 16–24 hr, 3D7-A10, survival at 60 h): 168 nM | IC50 ([1]; 3D7, read-out: Late rings Mean IC50 (IC50^8h), 8-h exposure 8–16 hr, 3D7-A10, survival at 60 h): 878 nM | IC50 ([1]; 3D7, read-out: Late trophozoites Mean IC50 (IC50^8h), 8-h exposure 24–32 hr, 3D7-A10, survival at 60 h): 199 nM | IC50 ([1]; 3D7, read-out: Schizonts Mean IC50 (IC50^8h), 8-h exposure 32–40 hr, 3D7-A10, survival at 60 h): 4340 nM | Stage of peak activity (Figure 6) ([1]; period when the parasite was most susceptible (lowest IC50^8h)): trophozoites | Peak Activity (Table S1) ([1]; stage(s) with the lowest IC50^8h): Trophs | Log2(fold changes) 3-phosphoglycerate ([2]; metabolite 3-phosphoglycerate, log2 fold change): 0.0073 | Log2(fold changes) 4-Pyridoxic acid ([2]; metabolite 4-Pyridoxic acid, log2 fold change): -0.0867 | Log2(fold changes) 4-aminobutyrate ([2]; metabolite 4-aminobutyrate, log2 fold change): -0.1160 | Log2(fold changes) 4-phosphopantetheine ([2]; metabolite 4-phosphopantetheine, log2 fold change): -1.1166 | Log2(fold changes) 4-phosphopantothenate ([2]; metabolite 4-phosphopantothenate, log2 fold change): -0.2287 | Log2(fold changes) 5-aminopentanoic acid ([2]; metabolite 5-aminopentanoic acid, log2 fold change): 0.0000 | Log2(fold changes) 5-methyl-THF ([2]; metabolite 5-methyl-THF, log2 fold change): 0.0000 | Log2(fold changes) 5-phosphoribosyl-1-pyrophosphate ([2]; metabolite 5-phosphoribosyl-1-pyrophosphate, log2 fold change): -0.7343 | Log2(fold changes) 6-phospho-D-gluconate ([2]; metabolite 6-phospho-D-gluconate, log2 fold change): -0.1141 | Log2(fold change) HVDD ([2]; metabolite HVDD): -2.1597 | Log2(fold change) Hydroxyisocaproic acid ([2]; metabolite Hydroxyisocaproic acid): 0.0000 | Log2(fold change) IDP ([2]; metabolite IDP): 0.0000 | Log2(fold change) IMP ([2]; metabolite IMP): 0.0628 | Log2(fold change) Inositol ([2]; metabolite Inositol): 0.0000 | Log2(fold change) Isopentyl-PP ([2]; metabolite Isopentyl-PP): 0.0000 | Log2(fold change) L-arginino-succinate ([2]; metabolite L-arginino-succinate): 0.8581 | Log2(fold change) LD ([2]; metabolite LD): -0.0397 | Log2(fold change) Myristoyl/tetradecanoyl-CoA ([2]; metabolite Myristoyl/tetradecanoyl-CoA): 0.0000 | Log2(fold change) N-Acetyl-L-alanine ([2]; metabolite N-Acetyl-L-alanine): 0.1987 | Log2(fold change) N-acetyl-L-ornithine ([2]; metabolite N-acetyl-L-ornithine): 0.0000 | Log2(fold change) N-acetyl-glucosamine-1/6-phosphate ([2]; metabolite N-acetyl-glucosamine-1/6-phosphate): -0.0707 | Log2(fold change) N-acetyl-glutamate ([2]; metabolite N-acetyl-glutamate): -0.1403 | Log2(fold change) N-acetyl-glutamine ([2]; metabolite N-acetyl-glutamine): -1.0773 | Log2(fold change) N-carbamoyl-L-aspartate ([2]; metabolite N-carbamoyl-L-aspartate): 0.5722 | Log2(fold change) NAD+ ([2]; metabolite NAD+): -0.1059 | Log2(fold change) NADH ([2]; metabolite NADH): 2.0630 | Log2(fold change) NADP+ ([2]; metabolite NADP+): -0.2030 | Log2(fold change) NADPH ([2]; metabolite NADPH): 1.8886 | Log2(fold change) O-acetyl-L-serine ([2]; metabolite O-acetyl-L-serine): 0.0000 | Log2(fold change) Octoluse 8/1P ([2]; metabolite Octoluse 8/1P): 0.3428 | Log2(fold change) Octoluse Bisphosphate ([2]; metabolite Octoluse Bisphosphate): 0.2244 | Log2(fold change) PD ([2]; metabolite PD): -1.0804 | Log2(fold change) PE ([2]; metabolite PE): -1.1988 | Log2(fold change) PEE ([2]; metabolite PEE): -0.8148 | Log2(fold change) PEEK ([2]; metabolite PEEK): 0.0064 | Log2(fold change) PVNF ([2]; metabolite PVNF): -2.2754 | Log2(fold change) Pyroglutamic acid ([2]; metabolite Pyroglutamic acid): 0.2204 | Log2(fold change) Pyrophosphate ([2]; metabolite Pyrophosphate): 0.0000 | Log2(fold change) Ribose-5-phosphate ([2]; metabolite Ribose-5-phosphate): -0.4834 | Log2(fold change) S-adenosyl-L-homocysteine ([2]; metabolite S-adenosyl-L-homocysteine): 0.0314 | Log2(fold change) S-adenosyl-L-methioninamine ([2]; metabolite S-adenosyl-L-methioninamine): 0.0000 | Log2(fold change) S-adenosyl-L-methionine ([2]; metabolite S-adenosyl-L-methionine): 0.0000 | Log2(fold change) S-methyl-5'-thioadenosine ([2]; metabolite S-methyl-5'-thioadenosine): -0.0546 | Log2(fold change) SD ([2]; metabolite SD): -0.8375 | Log2(fold change) SDL ([2]; metabolite SDL): -2.4484 | Log2(fold change) SID ([2]; metabolite SID): 0.0000 | Log2(fold change) Sedoheptulose bisphosphate ([2]; metabolite Sedoheptulose bisphosphate): 0.5967 | Log2(fold change) Thiamine pyrophosphate ([2]; metabolite Thiamine pyrophosphate): 0.1905 | Log2(fold changes) UDP-D-glucose ([2]; metabolite UDP-D-glucose, log2 fold change): 0.0680 | Log2(fold changes) UDP-D-glucuronate ([2]; metabolite UDP-D-glucuronate, log2 fold change): -0.0322 | Log2(fold changes) UDP-N-acetyl-glucosamine ([2]; metabolite UDP-N-acetyl-glucosamine, log2 fold change): -0.0747 | Log2(fold changes) UDP ([2]; metabolite UDP, log2 fold change): -0.5781 | Log2(fold changes) UMP ([2]; metabolite UMP, log2 fold change): 0.0423 | Log2(fold changes) UTP ([2]; metabolite UTP, log2 fold change): -0.1765 | Log2(fold change) hydroxyphenylpyruvate ([2]; metabolite hydroxyphenylpyruvate): 0.0000 | Log2(fold change) hydroxyproline/Aminolevulinate ([2]; metabolite hydroxyproline/Aminolevulinate): -0.0266 | Log2(fold change) hypoxanthine ([2]; metabolite hypoxanthine): 0.1428 | Log2(fold change) indole ([2]; metabolite indole): 0.0089 | Log2(fold change) inosine ([2]; metabolite inosine): -0.2181 | Log2(fold change) isoleucine ([2]; metabolite isoleucine): 0.0175 | Log2(fold change) lactate ([2]; metabolite lactate): -0.1982 | Log2(fold change) leucine ([2]; metabolite leucine): -0.1115 | Log2(fold change) lysine ([2]; metabolite lysine): 0.0000 | Log2(fold change) malate ([2]; metabolite malate): -0.3708 | Log2(fold change) maleic acid ([2]; metabolite maleic acid): -0.2294 | Log2(fold change) methionine ([2]; metabolite methionine): 0.2631 | Log2(fold change) myo-inositol ([2]; metabolite myo-inositol): 0.0000 | Log2(fold change) nicotinamide mononucleotide ([2]; metabolite nicotinamide mononucleotide): 0.0000 | Log2(fold change) nicotinate ([2]; metabolite nicotinate): 0.0117 | Log2(fold change) ornithine ([2]; metabolite ornithine): 0.0000 | Log2(fold change) orotate ([2]; metabolite orotate): 1.3653 | Log2(fold change) orotidine-5'-phosphate ([2]; metabolite orotidine-5'-phosphate): 0.1863 | Log2(fold change) oxaloacetate ([2]; metabolite oxaloacetate): 0.0000 | Log2(fold change) p-aminobenzoate ([2]; metabolite p-aminobenzoate): 0.0000 | Log2(fold change) p-hydroxybenzoate ([2]; metabolite p-hydroxybenzoate): 0.0000 | Log2(fold change) pantothenate ([2]; metabolite pantothenate): 0.0065 | Log2(fold change) phenylalanine ([2]; metabolite phenylalanine): -0.1381 | Log2(fold change) phenylpyruvate ([2]; metabolite phenylpyruvate): 0.0000 | Log2(fold change) phosphoenolpyruvate ([2]; metabolite phosphoenolpyruvate): -0.0480 | Log2(fold change) prephenate ([2]; metabolite prephenate): 0.0000 | Log2(fold change) proline ([2]; metabolite proline): -0.1946 | Log2(fold change) pyridoxine ([2]; metabolite pyridoxine): 0.0000 | Log2(fold change) pyruvate ([2]; metabolite pyruvate): -0.1903 | Log2(fold change) riboflavin ([2]; metabolite riboflavin): -0.1484 | Log2(fold change) ribose ([2]; metabolite ribose): 0.0000 | Log2(fold change) ribose-phosphate ([2]; metabolite ribose-phosphate): 0.0000 | Log2(fold change) ribulose-5-phosphate ([2]; metabolite ribulose-5-phosphate): -0.2217 | Log2(fold change) serine ([2]; metabolite serine): 0.1164 | Log2(fold change) sn-glycerol-3-phosphate ([2]; metabolite sn-glycerol-3-phosphate): 0.2423 | Log2(fold change) succinate/Methylmalonic acid ([2]; metabolite succinate/Methylmalonic acid): 0.0338 | Log2(fold change) succinyl-CoA/methylmalonyl-CoA ([2]; metabolite succinyl-CoA/methylmalonyl-CoA): 0.0865 | Log2(fold change) taurine ([2]; metabolite taurine): 0.0000 | Log2(fold change) thiamine ([2]; metabolite thiamine): 0.0000 | Log2(fold change) threonine/homoserine ([2]; metabolite threonine/homoserine): -0.2212 | Log2(fold change) thymidine ([2]; metabolite thymidine): 0.0000 | Log2(fold changes) thymine ([2]; metabolite thymine, log2 fold change): 0.0000 | Log2(fold changes) trehalose-6-Phosphate ([2]; metabolite trehalose-6-Phosphate, log2 fold change): 0.0000 | Log2(fold changes) tryptophan ([2]; metabolite tryptophan, log2 fold change): -0.0286 | Log2(fold changes) tyrosine ([2]; metabolite tyrosine, log2 fold change): 0.0383 | Log2(fold changes) uridine ([2]; metabolite uridine, log2 fold change): 0.0000 | IC50 [3]: 89.7 nM
